For data set [1], the system named is H1975 cells. Put plainly: MTT cytotoxicity assay on H1975 NSCLC cells. It is filed as cell-based. Conditions: Homo sapiens, NCI-H1975, H1975, EGFR L858R/T790M, 72 h treatment. As for the experimental part:
(§1) H1975 and CCD-19 Lu was purchased from ATCC (American type culture collection). H1975 was cultivated with RPMI 1640 medium supplement with 10% fetal bovine serum (Gibco, Big Cabin, Okla., ME, USA), 100 U/mL, penicillin and 100 μg/mL and streptomycin (Gibco, Big Cabin, Okla., ME, USA). CCD-19 Lu was cultivated with MEM medium supplemented with 10% FBS, 100 U/ml penicillin and 100 μg/ml streptomycin. All cells were cultivated at 37° C. in a humidified atmosphere of 5% CO2.
(§2) H1975 cells were seeded in a 96-well microplate with 3000 cells/well confluence, and put into the incubator overnight for cells adhesion. Different concentrations of the compound F321-0719 were added with Dimethyl sulfoxide (DMSO) as vehicle control. The microplates were incubated for further 72 h. Each dosage was repeated in triplicate. 10 μL of MTT (5 mg/mL) solution was added to each well. The plate was placed back into the incubator for 4 hours. After that, 100 μL of resolved solution (10% SDS and 0.1 mM HCL) was added to each well. Before dissolving the formazan crystals, the microplate was put back into the incubator for another 4 hours. The absorbance of the plate was measured at 570 nm with reference 650 nm by a microplate reader (Tecan, Morrisville, N.C., USA). Cell viability was calculated by percentages of the absorbance of the treatment group divided by the absorbance of untreated group. […]

A short description of data set [2]: MTT cytotoxicity assay on normal lung fibroblast CCD-19 Lu cells. As to conditions: human, CCD-19 Lu normal lung fibroblast cells, CCD-19 Lu normal lung cells, MTT. It is filed as cell-based. As to the method:
as §1, §2
(Formazan colour is commonly taken as a measure of viable cells.)

Data set [3] concerns CCD-19 Lu cells. The description is as above. Conditions: 72 h; even at concentration 20 times the IC50 on H1975 cells. It is filed as cell-based. As to the method: as §1, §2
For data set [4], the system named is AMPK. Put plainly: AMPK enzyme activity assay (CycLex AMPK Kinase Assay Kit). Type of data set: biochemical. As to conditions: at 2.5 μM of the compound. An excerpt: The CycLex AMPK Kinase Assay Kit (CycLex Co., Ltd., Nagano, Japan) was used to detect the activation of AMPK by the compound F321-0719. Compound C was used as AMPK inhibitor, and AMPK active enzyme was used as a positive control for phosphorylation.

Data set [5] has as its system phosphorylation of AMPK and ACC. Kind of data set: Western blot analysis of AMPK and ACC phosphorylation in H1975 cells. It is filed as cell-based. Conditions: β-actin loading control. As for the experimental part:
After incubating H1975 cells with the compound F321-0719 for 24 h, H1975 cells were harvested and washed with cold 1×PBS. Then, cells were lysed with ice-cold RIPA lysis buffer with protease and phosphatase inhibitors added to extract the cell protein extraction. The supernatants were collected by centrifugation at 12,000 g, for 5 minutes. The quantitation of total protein extraction was measured by Bio-Rad DCTM protein assay kit (Bio-Rad, Philadelphia, Pa., USA). Then 30 μg of protein were loaded and electrophoretically separated on 10% SDS-PAGE gel and then transferred to Nitrocellulose (NC) membrane. Membranes were blocked with 5% non-fat milk and […] containing 0.1% Tween-20 (TBST) for 1 hour at room temperature. After 1 hour, membranes were incubated with primary antibodies (1:1000 dilution) against β-actin, total/phosphor-ACC, total-AMPK, and against phosphor-AMPK, at 4° C. with gently shaking overnight. Membranes were washed with TBST for 3 times (5 minutes/time), and incubated with secondary fluorescent antibody (1:10000 dilutions) for 1 hour at room temperature. Rewashing with TBST for 3 times (15 minutes/time), the stripes were visualized by LI-COR Odessy scanner (Belfast, Me., USA).
Background: In western blotting, separated proteins are transferred to a membrane and probed.

The test system of data set [6] is H1975 cells. Put plainly: Apoptosis assay (Annexin-V FITC/PI flow cytometry) in H1975 cells. It is filed as cell-based. Conditions: 48 h treatment, vs control group. As for the experimental part:
H1975 cells (1×10^5 cells/well) were seeded in a 6-well plate for 24 h, and treated with the indicated concentrations of the compound F321-0719 for an additional 48 h at 37° C. After 48 h, the cells were washed by ice-cold 1×PBS (Phosphate-buffered saline) once and harvested by trypsination. Then cells were centrifuged, collected and re-suspended in ice-cold 1×PBS. After removing the supernatants, cell pellets were re-suspended in 100 μL 1× Annexin-binding buffer. The cells were then double-stained with Annexin-V FITC and PI (100 μg/mL) of 2 μL respectively for 15 min at room temperature in dark. After that, 300 μL 1× Annexin-binding buffer was added. Apoptotic cells were quantitatively counted by a BD Aria III Flow Cytometer (BD Biosciences, San Jose, Calif., USA).

For data set [7], the system named is H1975 cells. Put plainly: Cell cycle analysis (PI staining, flow cytometry) in H1975 cells. Type of data set: cell-based. As to conditions: 5 μM and 10 μM, 48 h. As to the method: H1975 cells were plated with 1.5×10^5 cells/well at a 6-well plate and cultured overnight for attachment. Cells were treated with the compound F321-0775 at 0, 2.5, 5, 10 μM for 48 h. After treatment, all cells were harvested by trypsinization, and collected by centrifugation. After removing all suspension, cells were washed by PBS. Cells pellets were re-suspended in 70% ethanol at 4° C. overnight. Cells were centrifuged at 1000 rpm for 5 min to remove all the ethanol. Each cell pellet was re-suspended in 500 μl PI staining solution at 37° C. for 30 min in dark. Then, they were washed in PBS twice. Cells were re-suspended in 300 μl 1× binding buffer and transferred to the flow cytometer (BD FACS Aria III).
In general terms: In flow cytometry, cells or beads pass a laser one at a time.

Consider `O=C(Nc1cccc(-c2noc(C3CCCC3)n2)c1)c1cc2ccccc2[nH]1` [F321-0719], for which the IC50 in data set [1] worked out at 3.46 ± 1.71 µM. The IC50 at 72 h in data set [2] is over 100 µM. The “cytotoxicity on CCD-19 Lu cells” value in data set [3] is on record as “no cytotoxicity”. In data set [4], the “AMPK enzyme activity (fold of AMPK kinase group)” value is recorded as “enhanced”. For the same compound, the “phosphorylation of AMPK and ACC (western blot)” value in data set [5] is “activated phosphorylation of both AMPK and ACC in a dose-dependent manner”. Further, in data set [6], the apoptosis level result is listed as “induced significant level of apoptosis in a concentration-dependent manner”. The “G2 phase of cell cycle distribution” value in data set [7] is on record as “increased”.

In general, IC50 refers to the concentration that gives 50% inhibition. Lower therefore signals higher potency.
